Results taken from patent publication US8288438B2, “Methods for avoiding edema in the treatment or prevention of PPARγ-responsive diseases, including cancer” (Metabolex, Inc., priority 2005, dated 2012).
Read-outs that look alike come from different tables or passages of the source.

Key:
PPARγ = molecular target: T1, PPARγ (Homo sapiens, UniProt P37231); experiment: partial agonism on PPARγ (Example 8, FIG. 6); assay type: cell-based
T1 sequence (P37231 1-505): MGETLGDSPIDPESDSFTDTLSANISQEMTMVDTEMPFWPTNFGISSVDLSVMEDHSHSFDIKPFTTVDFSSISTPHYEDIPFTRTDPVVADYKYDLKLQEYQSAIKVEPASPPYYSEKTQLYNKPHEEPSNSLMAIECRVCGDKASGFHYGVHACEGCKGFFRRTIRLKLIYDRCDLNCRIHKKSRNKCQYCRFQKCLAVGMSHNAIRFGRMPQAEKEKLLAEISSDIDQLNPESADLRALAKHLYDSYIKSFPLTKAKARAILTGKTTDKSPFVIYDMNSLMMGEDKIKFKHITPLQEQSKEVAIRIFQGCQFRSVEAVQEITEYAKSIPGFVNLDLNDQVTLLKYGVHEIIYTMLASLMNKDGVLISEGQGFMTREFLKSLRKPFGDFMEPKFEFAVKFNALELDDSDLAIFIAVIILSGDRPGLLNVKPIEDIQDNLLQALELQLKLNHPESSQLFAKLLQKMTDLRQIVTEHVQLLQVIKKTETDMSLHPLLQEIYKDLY
Description: Expression of reporter genes in response to compounds identified as binders of PPARγ may also be used to measure PPARγ activation. PPARγ may be co-transfected with reporter genes known in the art such as, for example, luciferase, β-galactosidase, alkaline phosphatase, fluorescent green protein, or chloramphenicol acetyltransferase. The transfected cells can be exposed to appropriate concentrations of candidate compounds with rosiglitazone as a positive control. Reporter gene expression will be induced by compounds that bind and activate PPARγ. Thus, compounds that induce reporter gene expression can be identified as activators of PPARγ (Forman, et al. (1997) PNAS 94:4312). Preferably the compounds induce reporter gene expression at levels at least 5-10 fold, more preferably 10-100 fold, more preferably 100-500 fold, more preferably 500-1000 fold, most preferably greater than 1000 fold greater than the negative control.
Example 8 illustrates the partial agonism of the (−) isomer of either halofenic acid or halofenate on PPARγ (see, FIG. 6).

C57BL/6j ob/ob Mice = experiment: glucose lowering activity of halofenate analogs in C57BL/6J ob/ob mice (Example 14); assay type: in vivo
Protocol: Male, 8-9 weeks old, C57BL/6J ob/ob mice were purchased from The Jackson Laboratory (Bar Harbor, Me., USA). Animals were housed (4-5 mice/cage) under standard laboratory conditions at 22±3° C. temperature and 50±20% relative humidity, and were maintained on a diet of Purina rodent chow and water ad libitum. Prior to treatment, blood was collected from the tail vein of each animal. Mice that had non-fasting plasma glucose levels between 250 and 500 mg/dl were used. Each treatment group consisted of 8-10 mice that were distributed so that the mean glucose levels were equivalent in each group at the start of the study. Mice were dosed orally by gavage once a day for 1-3 days with either vehicle, (−) halofenic acid, (±) analog 14, 29, 33, 34, 35, 36, 37, or 38 at 125 mg/kg or (−) analog 29, 36, 37 or 38 at 150 mg/kg. compounds were delivered in a liquid formulation containing 5% (v/v) dimethyl sulfoxide (DMSO), 1% (v/v) tween 80 and 0.9% (w/v) methylcellulose. The gavage volume was 10 ml/kg. Blood samples were taken at 6 hours after the each dose and analyzed for plasma glucose. Food intake and body weight were measured daily. Plasma glucose concentrations were determined calorimetrically using glucose oxidase method (Sigma Chemical Co, St. Louis, Mo., USA). Significant difference between groups (comparing drug-treated to vehicle-treated) was evaluated using the Student unpaired t-test.

cytochrome P450 2C9 = cytochrome P450 2C9 (Homo sapiens, UniProt P11712); settings: cited from earlier work
Chain of cytochrome P450 2C9 (P11712 whole entry): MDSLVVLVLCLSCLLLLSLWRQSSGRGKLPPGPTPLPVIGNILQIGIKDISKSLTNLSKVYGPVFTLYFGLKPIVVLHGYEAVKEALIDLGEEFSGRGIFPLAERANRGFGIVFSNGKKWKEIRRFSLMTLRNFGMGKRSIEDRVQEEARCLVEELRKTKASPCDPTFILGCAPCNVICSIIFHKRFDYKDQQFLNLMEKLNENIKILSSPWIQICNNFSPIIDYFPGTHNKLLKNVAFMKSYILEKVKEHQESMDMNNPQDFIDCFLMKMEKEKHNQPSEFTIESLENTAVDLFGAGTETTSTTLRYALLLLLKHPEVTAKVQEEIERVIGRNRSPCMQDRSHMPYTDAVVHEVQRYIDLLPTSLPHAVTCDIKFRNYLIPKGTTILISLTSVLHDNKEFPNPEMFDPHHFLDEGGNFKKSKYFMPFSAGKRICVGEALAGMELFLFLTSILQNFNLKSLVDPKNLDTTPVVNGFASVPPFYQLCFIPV

[1] = system: type 2 diabetics with inadequate control on insulin; experiment: randomized, double-blind, placebo-controlled, multi-centre studies on type 2 diabetics with inadequate control on insulin; assay type: in vivo, human
Description: Example 9 presents the results of two randomized, double-blind, placebo-controlled, multi-centre studies on type 2 diabetics with inadequate control on insulin. […] Both studies were about 4 months long, with a stabilization/run in period for 2 to 4 weeks and a 3 month treatment period. Endpoints included fasting plasma glucose (FPG), HbA1c, weight, and the incidence of edema.

[2] = system: human subjects also receiving glyburide; experiment: 14 days of treatment in human subjects also receiving glyburide (FIG. 19, 20); assay type: in vivo; settings: after 14 days of treatment
Description: The data for pioglitazone (Actos) is taken from Goldberg R B et al., Diabetes Care 28(7):1547-54 (2005), which is incorporated herein by reference.

monkeys = experiment: separate animal studies: heart weight or fluid accumulation; assay type: in vivo; settings: therapeutically relevant doses, data not shown
rats = experiment: as above; assay type: in vivo; settings: therapeutically relevant doses, data not shown
[3] = 125 mg/kg oral gavage once a day
[4] = (−) analogs, single dose 150 mg/kg

O=C(O)C(Oc1cccc(C(F)(F)F)c1)c1ccc(Cl)cc1 (single isomer, unassigned; (-)) [(−)halofenic acid, (−) (3-trifluoromethylphenoxy) (4-chlorophenyl)acetic acid]
kind of PPARγ agonism (PPARγ): partial agonist
ability to induce PPARγ expression (PPARγ; FIG. 6): a few fold
antagonizing the agonist activity of rosiglitazone (PPARγ; FIG. 6): significantly antagonizing
plasma glucose concentrations vs vehicle (in words) (C57BL/6j ob/ob Mice; [3]): significantly reduced plasma glucose concentrations at 6 hours
inhibition of cytochrome P450 2C9 (cytochrome P450 2C9; listed as (−) enantiomer of halofenic acid): about twenty-fold less active

NC(=O)COC(=O)C(Oc1cccc(C(F)(F)F)c1)c1ccc(Cl)cc1 (racemic) [(±)Analog 37]
plasma glucose concentrations vs vehicle (in words) (C57BL/6j ob/ob Mice; [3]): significantly lowered plasma glucose concentrations at 54 hours

CN(C)CCOC(=O)C(Oc1cccc(C(F)(F)F)c1)c1ccc(Cl)cc1 (racemic) [(±)Analog 35]
plasma glucose concentrations vs vehicle (in words) (C57BL/6j ob/ob Mice; [3]): significantly lowered plasma glucose concentrations at 30 and 54 hours

NC(=O)COC(=O)C(Oc1cccc(C(F)(F)F)c1)c1ccc(Cl)cc1 (single isomer, unassigned; (-)) [(−)Analog 37]
plasma glucose concentrations vs vehicle (in words) (C57BL/6j ob/ob Mice; [4]): significantly reduced plasma glucose concentrations at 6 hours

O=C(NCCOC(=O)C(Oc1cccc(C(F)(F)F)c1)c1ccc(Cl)cc1)c1ccccc1 (single isomer, unassigned; (-)) [(−)Analog 36]
plasma glucose concentrations vs vehicle (in words) (C57BL/6j ob/ob Mice; [4]): significantly reduced plasma glucose concentrations at 6 hours

CC(=O)NCCOC(=O)C(Oc1cccc(C(F)(F)F)c1)c1ccc(F)cc1 (racemic) [(±)Analog 14]
plasma glucose concentrations vs vehicle (in words) (C57BL/6j ob/ob Mice; [3]): significantly lowered plasma glucose concentrations at 6, 30 and 54 hours

O=C(O)C(Oc1ccc(Cl)cc1-n1nc2ccccc2n1)c1ccccc1 (racemic) [Formula V]
kind of PPARγ agonism (PPARγ): partial PPARγ agonists

CC(=O)NCCOC(=O)C(Oc1cccc(C(F)(F)F)c1)c1ccc(Br)cc1 (single isomer, unassigned; (-)) [(−)Analog 29]
plasma glucose concentrations vs vehicle (in words) (C57BL/6j ob/ob Mice; [4]): significantly reduced plasma glucose concentrations at 6 hours

O=C(O)C(Oc1cccc(C(F)(F)F)c1)c1ccc(Cl)cc1 (racemic) [racemic halofenic acid, 4-Chlorophenyl-(3-trifluoromethylphenoxy)-acetic Acid, reference compound]
kind of PPARγ agonism (PPARγ): partial PPARγ agonists
inhibition of cytochrome P450 2C9 (cytochrome P450 2C9): found to inhibit

CCCCOC(=O)C(Oc1cccc(C(F)(F)F)c1)c1ccc(Cl)cc1 (racemic) [(±)Analog 33]
plasma glucose concentrations vs vehicle (in words) (C57BL/6j ob/ob Mice; [3]): significantly lowered plasma glucose concentrations at 6 and 54 hours

O=C(NCCOC(=O)C(Oc1cccc(C(F)(F)F)c1)c1ccc(Cl)cc1)c1ccccc1 (racemic) [(±)Analog 36]
plasma glucose concentrations vs vehicle (in words) (C57BL/6j ob/ob Mice; [3]): significantly lowered plasma glucose concentrations at 30 and 54 hours

CN(C)C(=O)COC(=O)C(Oc1cccc(C(F)(F)F)c1)c1ccc(Cl)cc1 (racemic) [(±)Analog 38]
plasma glucose concentrations vs vehicle (in words) (C57BL/6j ob/ob Mice; [3]): significantly lowered plasma glucose concentrations at 6, 30 and 54 hours

CC(=O)NCCOC(=O)C(Oc1cccc(C(F)(F)F)c1)c1ccc(Cl)cc1 (single isomer, unassigned; (-)) [(−) halofenate, (−) 2-acetamidoethyl 4-chlorophenyl-(3-trifluoromethylphenoxy)acetate]
kind of PPARγ agonism (PPARγ): partial agonist
antagonizing the agonist activity of rosiglitazone (PPARγ; FIG. 6): significantly antagonizing
plasma glucose levels as judged by HbA1c levels compared to placebo group ([1]; 600 mg, analysis removing sites 60 and 70, FIG. 13): lowered
fasting plasma glucose levels compared to placebo group ([1]; 600 mg, sites 60 and 70 removed, FIG. 14, even greater extent than the 400 mg dose): lowered
plasma glucose levels as judged by HbA1c levels compared to placebo group ([1]; 200- and 400 mg, sites 60 and 70 removed, FIG. 15): lowered
fasting plasma glucose levels compared to placebo group ([1]; 200- and 400 mg, sites 60 and 70 removed, FIG. 16): lowered
anti-edema activity ([1]; Phase II clinical trial): had anti-edema activity of its own
side effects: hepatoxicity, edema, heart failure, increased weight gain ([1]; Phase II clinical trial): largely free
adverse effects on selected parameters of upper GI tract, liver, blood, kidney ([1]; data not shown): not associated with an excess of adverse effects
effect on the HDL/cholesterol profile ([1]; data not shown): neutral effect
serum triglycerides ([1]; data not shown): lowered serum triglycerides substantially
weight gain compared to placebo group ([1]; dose of 600 mg, FIG. 18): did not induce weight gain
incidence of edema formation compared to combined placebo groups ([1]; dose range of 200- to 600 mg, both studies, FIG. 17): did not increase the incidence of edema formation
edema formation compared to placebo groups ([1]; doses of 200- and 400 mg, FIG. 9): prevented edema formation
weight gain compared to placebo group ([1]; doses of 200- and 400 mg, FIG. 10): did not induce weight gain
Discontinued due to AE, patients (%) ([1]; first study, 200 mg group): 3 (4.1%)
Discontinued due to AE, patients (%) ([1]; first study, 400 mg group): 3 (4.3%)
fasting plasma glucose levels compared to placebo group ([1]; first study, doses of 200- and 400 mg, FIG. 7): lowered
plasma glucose levels as judged by HbA1c levels compared to placebo group ([1]; first study, doses of 200- and 400 mg, FIG. 8): lowered
Discontinued due to AE, patients (%) ([1]; second study, 600 mg group): 0 (0%)
plasma glucose levels as judged by HbA1c levels, from baseline ([1]; second study, 600 mg, FIG. 12, placebo group demonstrated a comparable response): lowered
fasting plasma glucose levels compared to placebo group ([1]; second study, dose of 600 mg, FIG. 11): lowered
blood glucose levels in patients also receiving glyburide ([2]; FIG. 19): substantially lower
hsCRP levels ([2]; FIG. 20): lower
increases in heart weight or fluid accumulation (monkeys): did not cause increases
increases in heart weight or fluid accumulation (rats): did not cause increases

CN(C)C(=O)COC(=O)C(Oc1cccc(C(F)(F)F)c1)c1ccc(Cl)cc1 (single isomer, unassigned; (-)) [(−)Analog 38]
plasma glucose concentrations vs vehicle (in words) (C57BL/6j ob/ob Mice; [4]): significantly reduced plasma glucose concentrations at 6 hours

O=C(O)C(Oc1cccc(C(F)(F)F)c1)c1ccc(Cl)cc1 (single isomer, unassigned; (+)) [(+) enantiomer of halofenic acid, (+) 4-chlorophenyl-(3-trifluoromethylphenoxy)-acetic acid]
inhibition of cytochrome P450 2C9 (cytochrome P450 2C9): quite potent

CC(=O)NCCOC(=O)C(Oc1cccc(C(F)(F)F)c1)c1ccc(Br)cc1 (racemic) [(±)Analog 29]
plasma glucose concentrations vs vehicle (in words) (C57BL/6j ob/ob Mice; [3]): significantly lowered plasma glucose concentrations at 6, 30 and 54 hours
